Values joined by “and” are separate entries in the source; they are usually repeats but may differ in a detail not shown here. Identical values can stand only once.
target: T1, Apelin receptor (Homo sapiens, UniProt P35414); assay: GTPγS Binding: The human APJ receptor was cloned by polymerase chain reaction and the gene encoding the receptor was subcloned in pFLAG-CMV-3 expression vector (Sigma, Saint Louis, Mo. USA) in-house at Amgen. A GTPγS binding assay was performed on membranes prepared from CHO cells stably expressing human APJ receptor. The optimum experimental conditions for the concentrations of GDP, MgCl2, and NaCl in the assay buffer were initially determined. The assay was performed in assay buffer [20 mM HEPES, pH 7.5, 5 mM MgCl2, and 0.1% (w/v) BSA with 200 mM NaCl, 3 μM GDP] and membranes expressing human APJ receptor/well along with WGA PS beads. The reaction was initiated by addition of 0.2 nM [35S]GTPγS in the absence or presence of various ligands and incubated at RT for 90 min. Nonspecific binding was determined in the presence of 100 μM GTPγS and was always less than 0.2% of total binding.
T1 sequence (P35414 whole entry): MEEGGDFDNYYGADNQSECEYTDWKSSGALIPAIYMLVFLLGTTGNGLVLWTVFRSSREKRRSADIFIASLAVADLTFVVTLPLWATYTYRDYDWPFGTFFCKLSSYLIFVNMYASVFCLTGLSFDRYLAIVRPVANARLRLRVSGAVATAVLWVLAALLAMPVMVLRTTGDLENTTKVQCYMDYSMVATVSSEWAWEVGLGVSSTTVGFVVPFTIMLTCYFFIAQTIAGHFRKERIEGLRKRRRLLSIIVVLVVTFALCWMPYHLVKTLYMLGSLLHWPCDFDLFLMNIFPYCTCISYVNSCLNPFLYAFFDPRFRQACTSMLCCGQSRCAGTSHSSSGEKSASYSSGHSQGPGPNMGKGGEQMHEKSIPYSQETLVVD

Which EC50 does the source give for `COc1cccc(OC)c1-n1c(NS(=O)(=O)CCc2ccc(F)cn2)nnc1-c1ccco1` here?
Its EC50 is 12 nM.

`COc1cccc(OC)c1-n1c(NS(=O)(=O)[C@@H](C)[C@@H](O)c2cccc3ccnn23)nnc1-c1ccc(C)o1` was tested. Which EC50 did it give?
Its EC50 is 0.79 nM and 0.87 nM.

With `COc1cccc(OC)c1-n1c(NS(=O)(=O)CCc2ncc(F)cn2)nnc1-c1ccco1` as the compound, how does the EC50 read?
Its EC50 is 3.2 nM.

For `COc1cccc(OC)c1-n1c(NS(=O)(=O)CCc2ncc(Cl)cc2C2=CCN(C(C)=O)CC2)nnc1-c1ccco1`, which EC50 is on record?
The EC50 was 0.32 nM.

For `COCn1cnc2c(C[C@H](C)S(=O)(=O)Nc3nnc(-c4ccco4)n3-c3c(OC)cccc3OC)ncc(F)c21` (mixture of isomers), which EC50 is on record?
Its EC50 is 0.77 nM.

Which EC50 does the source give for `COc1cccc(OC)c1-n1c(NS(=O)(=O)[C@H](C)[C@@H](O)c2cc3ccccn3n2)nnc1-c1ccc(C)o1` (mixture of isomers) here?
The EC50 was 0.65 nM.

How did the EC50 turn out when `COc1cccc(OC)c1-n1c(NS(=O)(=O)[C@H](C)[C@H](O)c2cscn2)nnc1-c1ccc(C)o1` (mixture of isomers) was run?
Its EC50 is 16 nM.

With `COc1cccc(OC)c1-n1c(NS(=O)(=O)[C@@H]2C[C@@H](C(=O)N3CCC3)CN(c3ncc(F)cn3)C2)nnc1-c1ccc(C)o1` (mixture of isomers) as the compound, how does the EC50 read?
The EC50 was 0.32 nM.

With `COc1cccc(OC)c1-n1c(NS(=O)(=O)[C@@H](C)Cc2ncc(F)cc2N2C[C@H](O)CC2=O)nnc1-c1ccco1` (mixture of isomers) as the compound, how does the EC50 read?
The EC50 was 0.61 nM.

`COc1cccc(OC)c1-n1c(NS(=O)(=O)C[C@H](O)c2ccc(F)cn2)nnc1-c1ccc(C)o1` (mixture of isomers) was tested. Which EC50 did it give?
The EC50 was 0.17 nM.

`COc1cccc(OC)c1-n1c(NS(=O)(=O)[C@H](C)Cc2ncc(F)cn2)nnc1-c1ccco1` (mixture of isomers) was tested. Which EC50 did it give?
Its EC50 is 0.29 nM.

Which EC50 does the source give for `COc1cccc(OC)c1-n1c(NS(=O)(=O)[C@H]2C[C@@H](C(=O)N3CCC3)CN(c3ncc(F)cn3)C2)nnc1-c1ccc(C)o1` (mixture of isomers) here?
Its EC50 is 0.35 nM.

`COc1cccc(OC)c1-n1c(NS(=O)(=O)[C@@H](C)[C@H](OC)c2ccc(C#N)cc2C#N)nnc1-c1ccc(C)o1` (mixture of isomers) was tested. Which EC50 did it give?
The EC50 was 0.21 nM.

How did the EC50 turn out when `COc1cccc(OC)c1-n1c(NS(=O)(=O)[C@H]2CCC[C@@H]2c2ncc(F)cn2)nnc1-c1ccc(C)o1` (mixture of isomers) was run?
Its EC50 is 2 nM.

How did the EC50 turn out when `COc1ncnc(OC)c1-n1c(NS(=O)(=O)[C@@H](C)Cc2ncc(F)cn2)nnc1-c1ccc(C)o1` (mixture of isomers) was run?
The EC50 was 3 nM.

`COc1cccc(OC)c1-n1c(NS(=O)(=O)C[C@@](C)(O)c2ncc(C#N)cn2)nnc1-c1ccc(C)o1` (mixture of isomers) was tested. Which EC50 did it give?
The EC50 was 0.65 nM.

Which EC50 does the source give for `COc1cccc(OC)c1-n1c(NS(=O)(=O)[C@@H](C)[C@H](C)c2cnc(C)c[n+]2[O-])nnc1-c1ccc(C)o1` (mixture of isomers) here?
Its EC50 is 0.14 nM.

For `COc1cccc(OC)c1-n1c(NS(=O)(=O)[C@H](C)[C@@H](O)c2ccnc3c2OCCC3)nnc1-c1ccc(C)o1` (mixture of isomers), which EC50 is on record?
Its EC50 is 13 nM.

How did the EC50 turn out when `COc1cccc(OC)c1-n1c(NS(=O)(=O)[C@@H](C)[C@@H](OC)c2cn3ccccc3n2)nnc1-c1ccc(C)o1` (mixture of isomers) was run?
Its EC50 is 0.96 nM.

How did the EC50 turn out when `COc1cccc(OC)c1-n1c(NS(=O)(=O)[C@@H](C)[C@H](O)c2cscn2)nnc1-c1ccc(C)o1` (mixture of isomers) was run?
Its EC50 is 1.2 nM.

Which EC50 does the source give for `Cc1ccc(-c2nnc(NS(=O)(=O)[C@@H](C)Cc3ncc(F)cn3)n2C2CCCC2)o1` (mixture of isomers) here?
Its EC50 is 270 nM.

`COc1cnc([C@@H](O)[C@H](C)S(=O)(=O)Nc2nnc(-c3ccc(C)o3)n2-c2c(OC)cccc2OC)cn1` (mixture of isomers) was tested. Which EC50 did it give?
Its EC50 is 0.25 nM.

With `CCc1ccc(-c2nnc(NS(=O)(=O)[C@@H](C)Cc3ncc(F)cn3)n2-c2c(OC)cccc2OC)o1` (mixture of isomers) as the compound, how does the EC50 read?
The EC50 was 0.13 nM.

`COc1cccc(OC)c1-n1c(NS(=O)(=O)[C@@H]2CCCC[C@H]2c2ncc(F)cn2)nnc1-c1ccco1` (single isomer, unassigned) was tested. Which EC50 did it give?
Its EC50 is 30 nM.

How did the EC50 turn out when `COc1cccc(OC)c1-n1c(NS(=O)(=O)[C@@H]2C[C@H](c3ccc(F)cc3)CN(C(C)=O)C2)nnc1-c1ccc(C)o1` (single isomer, unassigned) was run?
The EC50 was 1.1 nM.

Which EC50 does the source give for `COc1cccc(OC)c1-n1c(NS(=O)(=O)[C@H](C)[C@](C)(O)c2ncc(F)cn2)nnc1-c1ccc(C)o1` (single isomer, unassigned) here?
The EC50 was 0.57 nM.

`COc1cccc(OC)c1-n1c(NS(=O)(=O)[C@@H]2C[C@@H](c3ccc(F)cc3)CN(C(C)=O)C2)nnc1-c1ccc(C)o1` (single isomer, unassigned) was tested. Which EC50 did it give?
The EC50 was 0.75 nM.

Which EC50 does the source give for `COc1cccc(OC)c1-n1c(NS(=O)(=O)[C@@H](C)[C@@H](OCCO)c2ncc(C)cn2)nnc1-c1ccc(C)o1` (single isomer, unassigned) here?
Its EC50 is 0.15 nM.

For `COc1cccc(OC)c1-n1c(NS(=O)(=O)C[C@H](O)c2ccc(Cl)cc2S(C)(=O)=O)nnc1-c1ccc(C)o1` (single isomer, unassigned), which EC50 is on record?
Its EC50 is 0.09 nM.

`COc1cccc(OC)c1-n1c(NS(=O)(=O)[C@H]2CCCN(c3ncc(F)cn3)C2)nnc1-c1ccc(C)o1` (single isomer, unassigned) was tested. Which EC50 did it give?
Its EC50 is 3.2 nM.

`COc1cccc(OC)c1-n1c(NS(=O)(=O)[C@@H](C)Cc2ncc(F)c3[nH]cnc23)nnc1-c1ccco1` (single isomer, unassigned) was tested. Which EC50 did it give?
The EC50 was 28 nM.

Which EC50 does the source give for `COc1cccc(OC)c1-n1c(NS(=O)(=O)[C@H](C)[C@@H](O)c2cnc(C)cn2)nnc1-c1ccc(C)o1` (single isomer, unassigned) here?
The EC50 was 1.5 nM.

How did the EC50 turn out when `CCc1cnc([C@@H](C)[C@H](C)S(=O)(=O)Nc2nnc(-c3ccc(C)o3)n2-c2c(OC)cccc2OC)nc1` (single isomer, unassigned) was run?
The EC50 was 3.4 nM.

How did the EC50 turn out when `COc1cccc(OC)c1-n1c(NS(=O)(=O)[C@H]2COC[C@@H]2c2ncc(F)cn2)nnc1-c1ccco1` (single isomer, unassigned) was run?
The EC50 was 28 nM.

For `COc1cccc(OC)c1-n1c(NS(=O)(=O)C[C@H](O)c2ccc(F)cn2)nnc1-c1ccc(C)o1` (single isomer, unassigned), which EC50 is on record?
The EC50 was 0.29 nM.

`COc1cccc(OC)c1-n1c(NS(=O)(=O)[C@@H](C)[C@@H](O)c2ncn3ccccc23)nnc1-c1ccc(C)o1` (single isomer, unassigned) was tested. Which EC50 did it give?
The EC50 was 1.4 nM.

`COC[C@@H]1CCCC(=O)N1CCS(=O)(=O)Nc1nnc(-c2ccco2)n1-c1c(OC)cccc1OC` (single isomer, unassigned) was tested. Which EC50 did it give?
Its EC50 is 2.1 nM.

For `COC[C@H]1CCCC(=O)N1C[C@@H](C)S(=O)(=O)Nc1nnc(-c2ccc(C)o2)n1-c1c(OC)cccc1OC` (single isomer, unassigned), which EC50 is on record?
Its EC50 is 0.48 nM.

For `COc1cccc(OC)c1-n1c(NS(=O)(=O)[C@@H](C)[C@@H](O)c2coc(C)n2)nnc1-c1ccc(C)o1` (single isomer, unassigned), which EC50 is on record?
The EC50 was 8.3 nM.

`COc1cccc(OC)c1-n1c(NS(=O)(=O)CCN2C(=O)CCC[C@@H]2C)nnc1-c1ccco1` (single isomer, unassigned) was tested. Which EC50 did it give?
The EC50 was 1 nM.

Which EC50 does the source give for `COc1cccc(OC)c1-n1c(NS(=O)(=O)[C@@H]2CCC[C@H]2c2ncc(F)cn2)nnc1-c1ccc(C)o1` (single isomer, unassigned) here?
Its EC50 is 2.8 nM.

Which EC50 does the source give for `COc1cccc(OC)c1-n1c(NS(=O)(=O)C[C@@H](C)c2ncc(C)cn2)nnc1-c1ccco1` (single isomer, unassigned) here?
The EC50 was 6.7 nM.

Which EC50 does the source give for `COc1cccc(OC)c1-n1c(NS(=O)(=O)[C@@H](C)Cc2ncc(Br)cn2)nnc1-c1ccco1` (single isomer, unassigned) here?
Its EC50 is 0.31 nM.

Which EC50 does the source give for `COc1cccc(OC)c1-n1c(NS(=O)(=O)[C@H]2C[C@@H](O)CN(c3cc(C#N)ccn3)C2)nnc1-c1ccc(C)o1` (single isomer, unassigned) here?
The EC50 was 0.17 nM.

`COc1cccc(OC)c1-n1c(NS(=O)(=O)[C@H](C)Cc2ncc(F)cc2NC(C)=O)nnc1-c1ccco1` (single isomer, unassigned) was tested. Which EC50 did it give?
The EC50 was 0.21 nM.

How did the EC50 turn out when `COc1cccc(OC)c1-n1c(NS(=O)(=O)[C@@H](C)[C@@H](O)c2ncc(F)cn2)nnc1-c1ccc(C)o1` (single isomer, unassigned) was run?
The EC50 was 0.32 nM.

For `COc1cccc(OC)c1-n1c(NS(=O)(=O)[C@@H](C)[C@H](O)c2cc3n(n2)CCCO3)nnc1-c1ccc(C)o1` (single isomer, unassigned), which EC50 is on record?
Its EC50 is 1.2 nM.

Which EC50 does the source give for `COc1cccc(OC)c1-n1c(NS(=O)(=O)[C@@H](C)[C@@H](O)c2cnc3ccccn23)nnc1-c1ccc(C)o1` (single isomer, unassigned) here?
The EC50 was 0.96 nM.

With `COc1cccc(OC)c1-n1c(NS(=O)(=O)[C@@H](C)[C@H](O)c2cc3ccccn3n2)nnc1-c1ccc(C)o1` (single isomer, unassigned) as the compound, how does the EC50 read?
Its EC50 is 3.7 nM.

With `COc1cccc(OC)c1-n1c(NS(=O)(=O)[C@H]2CCCC[C@H]2c2ncc(F)cn2)nnc1-c1ccco1` (single isomer, unassigned) as the compound, how does the EC50 read?
The EC50 was 4.5 nM.

With `COc1cccc(OC)c1-n1c(NS(=O)(=O)[C@@H](C)[C@@H](O)c2cn3ccccc3n2)nnc1-c1ccc(C)o1` (single isomer, unassigned) as the compound, how does the EC50 read?
Its EC50 is 1 nM.

`COc1cccc(OC)c1-n1c(NS(=O)(=O)CCN2C(=O)N(C)CC[C@H]2C)nnc1-c1ccco1` (single isomer, unassigned) was tested. Which EC50 did it give?
Its EC50 is 0.7 nM.

With `COc1cccc(OC)c1-n1c(NS(=O)(=O)[C@@H](C)Cc2ncc(F)c3c2ncn3C)nnc1-c1ccco1` (single isomer, unassigned) as the compound, how does the EC50 read?
The EC50 was 0.98 nM.

Which EC50 does the source give for `COc1cc[nH]c(=O)c1-n1c(NS(=O)(=O)[C@@H](C)[C@H](C)c2ncc(C)cn2)nnc1-c1ccc(C)o1` (single isomer, unassigned; form 1) here?
Its EC50 is 0.75 nM.

For `COc1cc[nH]c(=O)c1-n1c(NS(=O)(=O)[C@@H](C)[C@H](C)c2ncc(F)cn2)nnc1-c1ccc(C)o1` (single isomer, unassigned; form 1), which EC50 is on record?
The EC50 was 0.67 nM.

Reference: ChEMBL document CHEMBL5727878, “Triazole furan compounds as agonists of the APJ receptor” (2020)
